According to ChEMBL document CHEMBL1201862, “PubChem BioAssay data set” (2004):
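48-hour exposure; five concentrations; linearly interpolated endpoints. Abbreviation: GI50, concentration required for 50% inhibition of growth.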 The source made the active and inactive calls. Cut-off read from the data, not from the text of the source: active = GI50 up to about 1.1 µM and inactive = higher.

Key:
Assay in all cases: growth of human tumour cells (NCI), 48 h
[1] = tested on: A498
[2] = tested on: A549
[3] = tested on: ACHN
[4] = tested on: BT-549
[5] = tested on: CAKI-1
[6] = tested on: CCRF-CEM
[7] = tested on: COLO 205
[8] = tested on: DU-145
[9] = tested on: EKVX
[10] = tested on: HCC 2998
[11] = tested on: HCT-116
[12] = tested on: HCT-15
[13] = tested on: HL-60
[14] = tested on: HOP-62
[15] = tested on: HOP-92
[16] = tested on: HT-29
[17] = tested on: Hs-578T
[18] = tested on: IGROV-1
[19] = tested on: K562
[20] = tested on: KM12
[21] = tested on: LOX IMVI
[22] = tested on: M14
[23] = tested on: MCF7
[24] = tested on: MDA-MB-231
[25] = tested on: MDA-MB-435
[26] = tested on: MOLT-4
[27] = tested on: Malme-3M
[28] = tested on: NCI-H23
[29] = tested on: NCI-H460
[30] = tested on: NCI-H522
[31] = tested on: NCI/ADR-RES
[32] = tested on: OVCAR-3
[33] = tested on: OVCAR-4
[34] = tested on: OVCAR-5
[35] = tested on: OVCAR-8
[36] = tested on: PC-3
[37] = tested on: RPMI-8226
[38] = tested on: RXF 393
[39] = tested on: SF-268
[40] = tested on: SF-295
[41] = tested on: SF-539
[42] = tested on: SK-MEL-28
[43] = tested on: SK-MEL-2
[44] = tested on: SK-MEL-5
[45] = tested on: SK-OV-3
[46] = tested on: SN12C
[47] = tested on: SNB-19
[48] = tested on: SNB-75
[49] = tested on: SW-620
[50] = tested on: T47D
[51] = tested on: TK-10
[52] = tested on: U-251
[53] = tested on: UACC-257
[54] = tested on: UACC-62
[55] = tested on: UO-31
[56] = tested on: 786-0
[57] = tested on: MDA-N
[58] = tested on: NCI-H226

For `Oc1ccc(NCn2c(=S)sc3ccccc32)cc1`, the GI50 [1] was > 100 µM (inactive), the GI50 [2] was > 100 µM (inactive) and the GI50 [3] was > 100 µM (inactive). The GI50 [4] was > 100 µM (inactive), the GI50 [5] was > 100 µM (inactive) and the GI50 [6] was 32 µM (inactive). The GI50 [7] was > 100 µM (inactive), the GI50 [8] was > 100 µM (inactive) and the GI50 [9] was > 100 µM (inactive). The GI50 [10] was > 100 µM (inactive), the GI50 [11] was > 100 µM (inactive) and the GI50 [12] was > 100 µM. For the same molecule, the GI50 [13] was 59.6 µM (inactive), the GI50 [14] was > 100 µM (inactive) and the GI50 [15] was 33 µM (inactive). The GI50 [16] was > 100 µM (inactive), the GI50 [17] was 50 µM (inactive) and the GI50 [18] was 33.2 µM (inactive). For the same molecule, the GI50 [19] was 22.3 µM (inactive), the GI50 [20] was > 100 µM (inactive) and the GI50 [21] was > 100 µM (inactive). The GI50 [22] was > 100 µM (inactive), the GI50 [23] was 92.9 µM (inactive) and the GI50 [24] was > 100 µM (inactive). For the same molecule, the GI50 [25] was > 100 µM (inactive), the GI50 [26] was 34.2 µM (inactive) and the GI50 [27] was > 100 µM (inactive). For the same molecule, the GI50 [28] was > 100 µM (inactive), the GI50 [29] was > 100 µM (inactive) and the GI50 [30] was 17.7 µM (inactive). The GI50 [31] was > 100 µM (inactive), the GI50 [32] was 97.9 µM (inactive) and the GI50 [33] was 91 µM (inactive). The GI50 [34] was > 100 µM (inactive), the GI50 [35] was > 100 µM (inactive) and the GI50 [36] was > 100 µM (inactive). The GI50 [37] was 26.2 µM (inactive), the GI50 [38] was > 100 µM (inactive) and the GI50 [39] was > 100 µM (inactive). For the same molecule, the GI50 [40] was > 100 µM (inactive), the GI50 [41] was > 100 µM (inactive) and the GI50 [42] was > 100 µM (inactive). The GI50 [43] was > 100 µM (inactive), the GI50 [44] was > 100 µM (inactive) and the GI50 [45] was > 100 µM (inactive). The GI50 [46] was > 100 µM (inactive), the GI50 [47] was > 100 µM (inactive) and the GI50 [48] was 54.8 µM (inactive). The GI50 [49] was 42.7 µM (inactive), the GI50 [50] was 34.4 µM (inactive) and the GI50 [51] was > 100 µM (inactive). The GI50 [52] was > 100 µM (inactive), the GI50 [53] was > 100 µM (inactive) and the GI50 [54] was 84.5 µM (inactive). For the same molecule, the GI50 [55] was 89.9 µM (inactive).

`Cc1cc(C)n2c(nc3ccccc32)c1C#N` was tested, and the GI50 [56] was > 100 µM (inactive), the GI50 [1] was > 100 µM (inactive) and the GI50 [2] was > 100 µM (inactive). The GI50 [3] was > 100 µM (inactive), the GI50 [4] was > 100 µM (inactive) and the GI50 [5] was > 100 µM (inactive). The GI50 [6] was > 100 µM (inactive), the GI50 [7] was > 100 µM (inactive) and the GI50 [8] was > 100 µM (inactive). The GI50 [9] was > 100 µM (inactive), the GI50 [10] was > 100 µM (inactive) and the GI50 [11] was 54.1 µM (inactive). The GI50 [12] was > 100 µM, the GI50 [13] was > 100 µM (inactive) and the GI50 [15] was 22.4 µM (inactive). For the same molecule, the GI50 [16] was > 100 µM (inactive), the GI50 [18] was > 100 µM (inactive) and the GI50 [19] was > 100 µM (inactive). The GI50 [21] was > 100 µM (inactive), the GI50 [22] was > 100 µM (inactive) and the GI50 [23] was > 100 µM (inactive). For the same molecule, the GI50 [24] was 69.2 µM (inactive), the GI50 [25] was > 100 µM (inactive) and the GI50 [57] was > 100 µM (inactive). The GI50 [26] was 93.8 µM (inactive), the GI50 [27] was > 100 µM (inactive) and the GI50 [58] was > 100 µM (inactive). For the same molecule, the GI50 [28] was > 100 µM (inactive), the GI50 [29] was > 10 µM (inactive) and the GI50 [31] was > 100 µM (inactive). The GI50 [32] was > 100 µM (inactive), the GI50 [33] was 10.8 µM (inactive) and the GI50 [34] was > 100 µM (inactive). For the same molecule, the GI50 [35] was > 100 µM (inactive), the GI50 [36] was > 100 µM (inactive) and the GI50 [38] was > 100 µM (inactive). For the same molecule, the GI50 [40] was > 100 µM (inactive), the GI50 [41] was > 100 µM (inactive) and the GI50 [42] was > 100 µM (inactive). For the same molecule, the GI50 [43] was > 100 µM (inactive), the GI50 [44] was 55.7 µM (inactive) and the GI50 [45] was > 100 µM (inactive). For the same molecule, the GI50 [46] was > 100 µM (inactive), the GI50 [47] was > 100 µM (inactive) and the GI50 [49] was > 100 µM (inactive). For the same molecule, the GI50 [50] was > 100 µM (inactive), the GI50 [51] was > 100 µM (inactive) and the GI50 [52] was > 100 µM (inactive). For the same molecule, the GI50 [53] was > 100 µM (inactive), the GI50 [54] was > 100 µM (inactive) and the GI50 [55] was > 100 µM (inactive).
